Reference: ChEMBL document CHEMBL1201862, “PubChem BioAssay data set” (2004)
Activity calls are given as the source filed them.

Assays:
cells = format: functional, cell-based; settings: PPC-1
MDA-MB-435 = test: cells; format: functional, cell-based; settings: Homo sapiens
[1] = Luminescence Cell-Based Dose Response to Identify Activators of Luciferase Translation or Activity in H4-C Neuroglioblastoma Cells. [Related pubchem assays: 1829 (Project Summary), 1814 (Primary HTS)]; format: functional
[2] = Luminescence Cell-Based Dose Response to Identify Activators of 5'UTR Stem-Loop Driven Prion Protein mRNA Translation in H4-C Neuroglioblastoma Cells. [Related pubchem assays: 1829 (Project Summary), 1814 (Primary HTS)]; format: functional
[3] = Luminescence Cell-Based Dose Confirmation to Identify Activators of 5'UTR Stem-Loop Driven Alpha-Synuclein mRNA Translation in H4 Neuroglioblastoma Cells. [Related pubchem assays: 1829 (Project Summary), 1814 (Primary HTS)]; format: functional
H4 = test: Luminescence Cell-Based Dose Response HTS to Identify Activators of 5'UTR Stem-Loop Driven Prion Protein mRNA Translation in H4 Neuroglioblastoma Cells. [Related pubchem assays: 1829 (Project Summary), 1814 (Primary HTS)]; format: functional; settings: Homo sapiens
[4] = biological target: NACHT, LRR and PYD domains-containing protein 3 (Homo sapiens, UniProt Q96P20); test: NALP3 inhibitors in yeast, dose response, luminescent (AID 488799); format: functional
[5] = Luminescence Cell-Based Dose Response HTS to Identify Activators of Luciferase Translation or Activity in H4 […] Cells. [Related pubchem assays: 1829 (Project Summary), 1814 (Primary HTS)]; format: functional
Melanocortin receptor 4 = Melanocortin receptor 4 (Homo sapiens, UniProt P32245); test: inhibitors of MC4R cAMP signaling – cell-based, TR-FRET, biased antagonists, dose response (AID 602298); format: functional;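 also: antagonist potency against agonist-stimulated cAMP production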
X-box-binding protein 1 = X-box-binding protein 1 (Homo sapiens, UniProt P17861); format: functional, Cricetulus griseus;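 also: confirmatory dose-response counter-screen serving a CHOP assay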
[6] = cAMP pathway inhibition in counterscreen cell line – TR-FRET cAMP detection, counter-screen for MC4R biased antagonist project, dose response (AID 602305); format: functional, cell-based;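 also: U2OS cells stimulated with forskolin near its EC80 as the cAMP inducer; potency is for inhibition of forskolin-stimulated cAMP signaling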
[7] = biological target: T1, High affinity choline transporter 1 (Homo sapiens, UniProt Q9GZV3); test: human choline transporter blockers, potency – cell-based, 5-point CRC, membrane potential dye, dose response (AID 504840); format: functional
T1 sequence (Q9GZV3 whole entry): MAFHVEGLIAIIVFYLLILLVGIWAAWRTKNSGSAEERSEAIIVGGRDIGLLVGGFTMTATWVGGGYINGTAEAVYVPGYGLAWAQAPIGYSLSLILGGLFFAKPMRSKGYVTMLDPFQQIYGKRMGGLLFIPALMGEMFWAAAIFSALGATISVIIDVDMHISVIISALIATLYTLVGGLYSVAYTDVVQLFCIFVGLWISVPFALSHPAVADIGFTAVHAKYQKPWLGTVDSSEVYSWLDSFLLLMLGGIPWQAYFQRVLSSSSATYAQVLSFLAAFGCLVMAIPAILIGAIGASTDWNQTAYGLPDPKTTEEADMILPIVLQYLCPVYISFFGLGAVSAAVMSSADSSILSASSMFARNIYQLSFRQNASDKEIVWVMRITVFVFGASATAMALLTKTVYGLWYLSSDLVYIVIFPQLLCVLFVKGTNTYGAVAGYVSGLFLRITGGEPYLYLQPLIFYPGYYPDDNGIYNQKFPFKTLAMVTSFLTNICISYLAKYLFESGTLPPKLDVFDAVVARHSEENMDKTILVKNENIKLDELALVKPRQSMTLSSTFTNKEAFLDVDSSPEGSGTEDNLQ

[8] = Luminescence Cell-Based Dose Response HTS to Identify Activators of Luciferase Translation or Activity in H4-C Neuroglioblastoma Cells. [Related pubchem assays: 1829 (Project Summary), 1814 (Primary HTS)]; format: functional
[9] = Luminescence Cell-Based Dose Confirmation HTS to Identify Activators of 5'UTR Stem-Loop Driven Alpha-Synuclein mRNA Translation in H4 Neuroglioblastoma Cells. [Related pubchem assays: 1829 (Project Summary), 1814 (Primary HTS)]; format: functional
[10] = Luminescence Cell-Based Dose Retest to Confirm Activators of 5'UTR Stem-Loop Driven Alpha-Synuclein mRNA Translation in H4 Neuroglioblastoma Cells. [Related pubchem assays (depositor defined):AID1813, AID1829]; format: functional
[11] = Luminescence Cell-Based Dose Response HTS to Identify Activators of 5'UTR Stem-Loop Driven Prion Protein mRNA Translation in H4-C Neuroglioblastoma Cells. [Related pubchem assays: 1829 (Project Summary), 1814 (Primary HTS)]; format: functional
Trypsin = Trypsin (Sus scrofa, UniProt P00761); test: trypsin protease activity blockade – biochemical, quenched peptide fluorescence, cherry-pick, selectivity assay for Rce1 protease inhibitor project, dose response (AID 488789)
CAAX prenyl protease 2 = CAAX prenyl protease 2 (Homo sapiens, UniProt Q9Y256); test: inhibition of Ras-converting CAAX protease Rce1 – biochemical, yeast membranes, quenched-peptide fluorescence, cherry-pick, dose response (AID 588849)
CAAX prenyl protease 2, sequence (Q9Y256 whole entry): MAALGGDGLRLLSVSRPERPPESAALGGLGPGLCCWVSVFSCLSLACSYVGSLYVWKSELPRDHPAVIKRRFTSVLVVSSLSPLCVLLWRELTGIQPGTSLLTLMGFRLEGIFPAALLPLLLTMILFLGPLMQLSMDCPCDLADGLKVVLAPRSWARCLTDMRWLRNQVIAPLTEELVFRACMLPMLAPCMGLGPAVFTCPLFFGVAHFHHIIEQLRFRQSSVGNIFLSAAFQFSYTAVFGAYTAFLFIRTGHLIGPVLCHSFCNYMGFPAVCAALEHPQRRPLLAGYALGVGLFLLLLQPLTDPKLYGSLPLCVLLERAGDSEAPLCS

Trypsin, sequence (P00761 whole entry): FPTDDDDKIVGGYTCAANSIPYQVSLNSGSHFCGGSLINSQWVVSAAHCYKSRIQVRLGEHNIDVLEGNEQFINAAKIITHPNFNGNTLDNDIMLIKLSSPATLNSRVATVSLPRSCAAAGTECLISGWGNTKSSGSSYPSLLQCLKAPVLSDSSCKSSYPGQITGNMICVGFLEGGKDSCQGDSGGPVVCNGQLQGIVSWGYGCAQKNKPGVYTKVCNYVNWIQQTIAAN
X-box-binding protein 1, sequence (P17861 whole entry): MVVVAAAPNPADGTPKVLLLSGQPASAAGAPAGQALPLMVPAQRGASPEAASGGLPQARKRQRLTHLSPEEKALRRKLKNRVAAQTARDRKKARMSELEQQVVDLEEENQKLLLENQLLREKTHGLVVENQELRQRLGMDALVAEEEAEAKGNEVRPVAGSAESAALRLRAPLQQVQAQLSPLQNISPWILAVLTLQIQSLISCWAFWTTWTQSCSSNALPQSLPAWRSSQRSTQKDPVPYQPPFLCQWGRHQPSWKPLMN
NACHT, LRR and PYD domains-containing protein 3, sequence (Q96P20 whole entry, the tested form may be a part): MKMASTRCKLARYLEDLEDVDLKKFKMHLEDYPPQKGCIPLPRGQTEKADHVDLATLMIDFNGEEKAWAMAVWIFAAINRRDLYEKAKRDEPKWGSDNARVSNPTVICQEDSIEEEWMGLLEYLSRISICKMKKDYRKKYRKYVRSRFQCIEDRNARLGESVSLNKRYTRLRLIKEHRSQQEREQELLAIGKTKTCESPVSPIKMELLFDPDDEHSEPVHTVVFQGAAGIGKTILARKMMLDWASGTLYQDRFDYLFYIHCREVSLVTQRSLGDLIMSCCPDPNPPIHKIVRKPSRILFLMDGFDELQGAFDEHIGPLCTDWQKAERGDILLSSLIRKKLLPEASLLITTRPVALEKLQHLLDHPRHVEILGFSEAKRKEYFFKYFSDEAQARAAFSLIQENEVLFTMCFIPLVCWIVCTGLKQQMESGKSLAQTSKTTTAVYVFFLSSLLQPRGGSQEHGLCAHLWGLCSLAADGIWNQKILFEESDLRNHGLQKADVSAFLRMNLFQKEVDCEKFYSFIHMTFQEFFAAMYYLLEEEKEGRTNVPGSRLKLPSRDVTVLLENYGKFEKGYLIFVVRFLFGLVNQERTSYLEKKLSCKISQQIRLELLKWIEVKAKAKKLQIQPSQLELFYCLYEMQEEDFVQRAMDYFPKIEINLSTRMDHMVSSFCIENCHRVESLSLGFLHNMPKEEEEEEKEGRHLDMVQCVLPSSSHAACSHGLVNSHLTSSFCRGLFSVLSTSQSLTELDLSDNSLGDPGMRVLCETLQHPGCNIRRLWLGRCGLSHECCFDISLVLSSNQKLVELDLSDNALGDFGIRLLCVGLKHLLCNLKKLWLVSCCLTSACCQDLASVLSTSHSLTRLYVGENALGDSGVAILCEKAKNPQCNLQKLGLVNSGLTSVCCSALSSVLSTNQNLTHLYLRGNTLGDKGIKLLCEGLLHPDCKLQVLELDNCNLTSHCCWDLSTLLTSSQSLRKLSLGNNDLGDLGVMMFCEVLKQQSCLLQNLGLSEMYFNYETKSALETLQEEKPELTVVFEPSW
Melanocortin receptor 4, sequence (P32245 whole entry): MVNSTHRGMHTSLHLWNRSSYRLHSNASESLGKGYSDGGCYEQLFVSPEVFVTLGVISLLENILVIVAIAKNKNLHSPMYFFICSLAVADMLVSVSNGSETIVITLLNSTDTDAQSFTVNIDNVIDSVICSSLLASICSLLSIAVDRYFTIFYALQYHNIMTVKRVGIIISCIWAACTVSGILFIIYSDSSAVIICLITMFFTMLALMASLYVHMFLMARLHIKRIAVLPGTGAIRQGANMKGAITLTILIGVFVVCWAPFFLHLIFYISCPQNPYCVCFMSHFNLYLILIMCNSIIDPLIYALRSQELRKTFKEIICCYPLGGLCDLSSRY

SMILES: CSc1nc(-c2ccccc2)nc(-c2ccccc2)n1
- IC50 (cells): > 10 µM (inactive)
- IC50 (MDA-MB-435): > 10 µM (inactive)

SMILES: Nc1ccc(Oc2cc(N)cc(Oc3ccccc3)c2)cc1
- EC50 [1]: > 12 µM (not active)
- EC50 [2]: 2.5 µM (active)
- EC50 [3]: 1.22 µM (active)
- EC50 (H4): 20.4 µM (active)
- IC50 [4]: 4.74 µM (active)
- EC50 [5]: < 0.1 µM (active)

SMILES: COc1cccc(C(=O)C(C#N)=C(SC)SC)c1
- IC50 (Melanocortin receptor 4): > 64.6 µM (inactive)
- Absolute IC50 (XBP1) (X-box-binding protein 1): 10 µM
- IC50 [6]: > 64.6 µM (inactive)
- IC50 [7]: 11.2 µM (active)

SMILES: COc1cccc(Nc2nnc(SCc3nc4ccccc4s3)s2)c1
- EC50 [8]: 2.15 µM (active)
- EC50 [9]: 27.4 µM (active)
- EC50 [10]: 1.31 µM (active)
- EC50 [5]: 46.8 µM (active)
- EC50 [11]: 4.9 µM (active)

SMILES: Cc1cc(NC(=O)COC(=O)c2nccnc2N)n(-c2ccccc2)n1
- AC50 (Trypsin): 25.9 µM (active)
- AC50 (CAAX prenyl protease 2): 1.84 µM (active)
